Series [1] is described as follows: Dissolution of active substances from Tablet 3. Format: physicochemical. The source says:
This combination of active substances and excipients was then compressed with a suitable tablet press (e.g. Korsch EK0 or Fette P1200) to form tablets.

The target of series [2] is T1, human PPARgamma-ligand binding domain (LBD) (Homo sapiens, UniProt P37231).
T1 construct: codes for the amino acids 205-505 of the human PPARgamma2 transcription factor; made in house; host or cells: E. coli BL21(DE3), vector pGEX-4T-1
T1 sequence (P37231 205-505): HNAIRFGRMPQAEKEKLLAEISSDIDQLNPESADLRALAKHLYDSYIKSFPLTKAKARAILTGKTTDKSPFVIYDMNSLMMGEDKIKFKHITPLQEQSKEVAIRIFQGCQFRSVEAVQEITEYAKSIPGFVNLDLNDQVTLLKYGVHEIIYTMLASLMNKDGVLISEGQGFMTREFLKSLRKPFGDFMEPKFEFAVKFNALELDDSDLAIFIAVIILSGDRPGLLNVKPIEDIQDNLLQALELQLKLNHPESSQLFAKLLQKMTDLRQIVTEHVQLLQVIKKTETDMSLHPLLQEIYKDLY
The series is described as follows: AlphaScreen: recruiting of biotinylated LXXLL peptide of cofactor CBP by GST-PPARgamma-LBD. The series is classed as biochemical. The conditions noted are these: for direct activation of the PPARgamma-LBD / recruiting of the LXXLL peptide: concentrations of up to 50 μM; for MW (AlphaScreen signal): 4 hours. How it is done:
Protein containing the human PPARgamma-ligand binding domain (LBD) was prepared as a GST fusion protein in E. coli and purified by affinity chromatography. […] The fusion protein was expressed in the E. coli strain BL21(DE3) recommended for pGEX vectors after induction with 0.2 mM IPTG for 4 hours at 25° C. The bacteria were pelleted after the induction and frozen in batches in PBS, pH 7.4. After opening up in a French Press, the dissolved GST-PPARgamma-LBD-fusion protein was purified using a GSTrap column (Pharmacia). Elution was carried out by the addition of 20 mM reduced glutathione. The GST-PPARgamma-LBD-protein fractions were desalinated using a HiTrap desalting column (Pharmacia) and the protein concentration was determined using a standard assay.
The assay buffer consisted of 25mM Hepes pH7.4, 100 mM NaCl, 1 mM DTT, 0.1% Tween-20, 0.1% BSA. […] The final DMSO concentration in the assay was 1% (v/v). A 1% DMSO solution was used as the background control (NSB). The measurement was done using a Packard fusion measuring device.

Series [3] has as its target T2, ligand binding domain of the human PPARgamma2 transcription factor fused to yeast GAL4 DNA binding domain (Homo sapiens, UniProt P37231).
T2 construct: codes for amino acids 205-505 of the human PPARgamma2 transcription factor; expressed in transfected cells
T2 sequence (P37231 205-505): T1 sequence (P37231 205-505)
Description: Luciferase activity in stably transformed PPARgamma reporter cell line (CHO-K1 clone 11). The series is classed as cell-based. The conditions noted are these: for MW (luciferase activity): 24 hours. The source says:
The cells used are CHO cells which are the result of transformation with two gene constructs.
The resulting plasmid pFA-CMV/hPPARgamma2-LBD codes N-terminally of the PPARgamma-LBD in the same reading frame for a Gal4 DNA binding domain. In addition the plasmid codes for neomycin resistance.
The cell line CHO-K1 (ATCC CCL-61) was cotransfected with the plasmids pFA-CMV/hPPARgamma2-LBD and pFR-Luc (Stratagene). pFR-Luc codes for the luciferase gene under the control of a five-times repeated yeast Gal4 binding site. The transfection was carried out with lipofectamine2000 in accordance with the manufacturer's instructions.
After six days' cultivation the cells were passaged and kept in culture for another 10 days. The resulting neomycin-resistant colonies were picked out under the microscope and transferred into 96 well dishes and cultured.
The test substances were brought to 100 times the desired concentration with a suitable solvent, e.g. DMSO, and diluted 1:100 with the medium placed in the cell culture plate. The solvent used, e.g. DMSO, was used as the background control in the same concentration.
Luminescence was measured after a five minute wait using a Packard TopCount NXT. The luciferase activity was obtained by integrating the relative luciferase units (RLU) of the first ten seconds after the start of measurement.

In series [4] the target is T3, human PPARgamma-ligand binding domain (LBD) (Homo sapiens, UniProt P37231).
T3 sequence (P37231 205-505): T1 sequence (P37231 205-505)
T3 sequence (P19793 220-461 partner): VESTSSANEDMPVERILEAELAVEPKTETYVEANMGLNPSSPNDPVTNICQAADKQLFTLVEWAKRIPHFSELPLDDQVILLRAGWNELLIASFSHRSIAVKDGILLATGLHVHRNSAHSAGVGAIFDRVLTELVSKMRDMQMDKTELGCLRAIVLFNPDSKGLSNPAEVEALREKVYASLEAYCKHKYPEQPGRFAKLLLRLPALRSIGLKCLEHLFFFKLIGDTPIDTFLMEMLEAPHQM
Description: SPA assay: displacement of 3H-labelled rosiglitazone from GST-PPARgamma-LBD. The conditions noted are these: for MW (SPA signal, bound 3H-rosiglitazone): 30 nM 3H-rosiglitazone, NSB 217, Bmax 911; for displacement of the radioactive rosiglitazone from the binding pocket: very large excesses of test substance. Here is the method:
Protein containing the human PPARgamma-ligand binding domain (LBD) was prepared as a GST fusion protein in E. coli and purified by affinity chromatography. To do this, a DNA section which codes for the amino acids 205-505 of the human PPARgamma2 transcription factor (cf. Genbank entry U79012) was subcloned via the additionally inserted restriction cutting sites BamH I and Xho I into the expression vector pGEX-4T-1 (Amersham) and the sequence of the section was monitored. […] The bacteria were pelleted after the induction and frozen in batches in PBS, pH 7.4. After opening up in a French Press, the dissolved GST-PPARgamma-LBD-fusion protein was purified using a GSTrap column (Pharmacia). Elution was carried out by the addition of 20 mM reduced glutathione. The GST-PPARgamma-LBD-protein fractions were desalinated using a HiTrap desalting column (Pharmacia) and the protein concentration was determined using a standard assay. Protein containing the human RXRalpha ligand binding domain (LBD) was prepared as a His tag fusion protein in E. coli and purified by affinity chromatography. To do this a DNA section which codes for the amino acids 220-461 of the human RXRalpha transcription factor (cf. Genbank entry NM_002957, nt 729-1457) was subcloned via the additionally introduced restriction cutting sites BamH I and Not I into the expression vector pET28c (Novagen) and the sequence of the section was monitored. […] The bacteria were pelleted after the expression and frozen in batches in PBS, pH 7.4. After opening up in a French Press, the dissolved His-RXRalpha-LBD-fusion protein is purified using a HiTrap chelating column (Pharmacia). Elution was carried out using a 500 mM imidazole step. The His-RXRalpha-LBD protein fractions were desalinated using a HiTrap desalting column (Pharmacia) and the protein concentration was determined using a standard assay. A description of the SPA assay format can be found in Mukherjee R et al., J Steroid Biochem Mol Biol (2002) 81:217-225. The assay buffer consisted of 20 mM Tris pH 7.5, 25 mM KCl, 10 mM DTT, 0.2% Triton X-100).

Turning to `NS(=O)(=O)c1cc2c(cc1Cl)NCNS2(=O)=O` [hydrochlorothiazide], the “dissolved after 30 minutes” value in series [1] (Tablet 3, first batch, 900 ml 0.1 M HCl, 100 rpm) came to 69±6.3%; in series [1] (Tablet 3, second batch, 900 ml 0.1 M HCl, 100 rpm) it was 72±2.1%; in series [1] (Tablet 3, third batch, 900 ml 0.1 M HCl, 100 rpm), 78±1.8%.
For the compound `CCCCC1=NC2(CCCC2)C(=O)N1Cc1ccc(-c2ccccc2-c2nnn[nH]2)cc1` [irbesartan], the “direct activation of the PPARgamma-LBD / recruiting of the LXXLL peptide” value in series [2] is recorded as “did not result in any direct activation of the PPARgamma-LBD”. For the same compound, in series [3], the “activation of the PPARgamma pathway in the PPARgamma reporter cell line” value (“activation of the PPARgamma pathway” below) was “only at higher test concentrations and to a lesser extent”. For the same compound, the “MW (luciferase activity)” value in series [3] (test substance 1.00E−04 M) was 29600 RLU; in series [3] (test substance 1.00E−05 M) it was 3292 RLU; in series [3] (test substance 1.00E−06 M), 657 RLU; in series [3] (test substance 3.00E−05 M), 22133 RLU; in series [3] (test substance 3.00E−06 M), 1028 RLU; in series [3] (test substance 3.00E−07 M), 491 RLU. The “MW (SPA signal, bound 3H-rosiglitazone)” value came to 510 in series [4] (test substance 1.00E−04 M); 723 in series [4] (test substance 1.00E−05 M); 815 in series [4] (test substance 1.00E−06 M); 913 in series [4] (test substance 1.00E−07 M); 648 in series [4] (test substance 3.00E−05 M); 779 in series [4] (test substance 3.00E−06 M). Moreover, in series [4] (test substance 3.00E−07 M), the “MW (SPA signal, bound 3H-rosiglitazone)” value is 810. In series [4], the “displacement of the radioactive rosiglitazone from the binding pocket” value (shortened to “displacement”) is “no concentration-dependent displacement”.
Consider `CCCCc1nc(Cl)c(CO)n1Cc1ccc(-c2ccccc2-c2nn[nH]n2)cc1` [losartan], for which the “direct activation of the PPARgamma-LBD / recruiting of the LXXLL peptide” value in series [2] was “did not result in any direct activation of the PPARgamma-LBD”. The “activation of the PPARgamma pathway” value in series [3] was “only at higher test concentrations and to a lesser extent”. For the same compound, the “MW (luciferase activity)” value worked out at 11322 RLU in series [3] (test substance 1.00E−04 M); 709 RLU in series [3] (test substance 1.00E−05 M); 589 RLU in series [3] (test substance 1.00E−06 M); 3271 RLU in series [3] (test substance 3.00E−05 M); 672 RLU in series [3] (test substance 3.00E−06 M); 874 RLU in series [3] (test substance 3.00E−07 M). In addition, the “MW (SPA signal, bound 3H-rosiglitazone)” value in series [4] (test substance 1.00E−04 M) worked out at 611; in series [4] (test substance 1.00E−05 M), 787; in series [4] (test substance 1.00E−06 M), 901; in series [4] (test substance 1.00E−07 M), 915; in series [4] (test substance 3.00E−05 M), 784; in series [4] (test substance 3.00E−06 M), 814. The “MW (SPA signal, bound 3H-rosiglitazone)” value in series [4] (test substance 3.00E−07 M) is reported as 835. In series [4], the “displacement” value is reported as “no concentration-dependent displacement”.
On to `CCCc1nc2c(C)cc(-c3nc4ccccc4n3C)cc2n1Cc1ccc(-c2ccccc2C(=O)[O-])cc1.[Na+]` [telmisartan sodium salt], for which the “dissolved after 30 minutes” value was 92±1.5% in series [1] (Tablet 3, first batch, 900 ml 0.1 M phosphate buffer pH 7.5, 75 rpm); 96±1.8% in series [1] (Tablet 3, second batch, 900 ml 0.1 M phosphate buffer pH 7.5, 75 rpm); 100±1.0% in series [1] (Tablet 3, third batch, 900 ml 0.1 M phosphate buffer pH 7.5, 75 rpm).
Consider `CCCc1nc2c(C)cc(-c3nc4ccccc4n3C)cc2n1Cc1ccc(-c2ccccc2C(=O)O)cc1` [telmisartan, 4′-[2-n-propyl-4-methyl-6-(1-methylbenzimidazol-2-yl)-benzimidazol-1-ylmethyl]-biphenyl-2-carboxylic acid], for which the “direct activation of the PPARgamma-LBD / recruiting of the LXXLL peptide” value in series [2] is “did not result in any direct activation of the PPARgamma-LBD”. The “MW (AlphaScreen signal)” value worked out at 847 in series [2] (test substance 1.00E−05 M); 677 in series [2] (test substance 1.00E−06 M); 606 in series [2] (test substance 1.00E−07 M); 720 in series [2] (test substance 3.00E−06 M); 644 in series [2] (test substance 3.00E−07 M); 642 in series [2] (test substance 3.00E−08 M). Further, the “MW (AlphaScreen signal)” value in series [2] (test substance 5.00E−05 M) is 1111. In addition, the “activation of the PPARgamma pathway” value in series [3] is on record as “particularly potent activation”. In addition, the “MW (luciferase activity)” value in series [3] (test substance 1.00E−05 M) worked out at 61397 RLU; in series [3] (test substance 1.00E−06 M) it was 2859 RLU; in series [3] (test substance 3.00E−05 M), 58790 RLU; in series [3] (test substance 3.00E−06 M) it was 24498 RLU; in series [3] (test substance 3.00E−07 M) it was 760 RLU. The “MW (SPA signal, bound 3H-rosiglitazone)” value in series [4] (test substance 1.00E−04 M) was determined as 545; in series [4] (test substance 1.00E−05 M) it was 703; in series [4] (test substance 1.00E−06 M), 818; in series [4] (test substance 1.00E−07 M) it was 837; in series [4] (test substance 3.00E−05 M) it was 691; in series [4] (test substance 3.00E−06 M) it was 818. Also, in series [4] (test substance 3.00E−07 M), the “MW (SPA signal, bound 3H-rosiglitazone)” value came to 802. In addition, the “displacement” value in series [4] is given as “no concentration-dependent displacement”.

Values taken from US20040259925A1, “Pharmaceutical compositions and methds for the prevention or treatment of cardiovascular, cardiopulmonary, pulmonary or renal diseases” (Boehringer Ingelheim Pharma GmbH & Co. KG, priority 2003, published 2004).
